Patent US5891657A (priority 1994, dated 1999)
Values after ≈ are worked out from the molar mass of the structure shown.

How the values were obtained:
anti-analyte antibody [1] = details: magnetic-particle enzyme immunoassay
Experimental: (§1) The sample to be tested is added, along with the enzyme conjugate, to a disposable test tube followed by the addition of paramagnetic particles with analyte-specific antibodies attached. At the end of an incubation period, a magnetic field is applied to hold the paramagnetic particles (with analyte and enzyme-conjugate bound to the antibodies on the particles, in proportion to their original concentration in the tube) in the tube and allow the unbound reagents to be decanted. After decanting, the particles are washed with Washing Solution.
(§2) The presence of analyte is detected by adding the enzyme substrate (hydrogen peroxide) and the chromogen (3,3',5,5'-tetramethylbenzidine). The enzyme-conjugate bound to the anti-analyte antibody catalyzes the conversion of the substrate/chromogen mixture to a colored product. After an incubation period, the reaction is stopped and stabilized by the addition of acid. Since the conjugate was in competition with the unlabeled analyte for the antibody sites, the color developed is inversely proportional to the concentration of analyte in the sample.
(§3) 200 μl of either standard, control or sample is added to each tube.
(§4) 250 μl of conjugate is added to each tube.
(§5) The antibody-coupled paramagnetic particles are mixed thoroughly and 500 ul of them are added to each tube (The stock solution with a concentration of 8-10 mg iron/ml was diluted 1:1000 in 150 mM Tris, 150 mM NaCl, 1 mM EDTA, 0.1% BSA with 15 ppm Proclin, pH 7.4 and 500 ul was added to each tube).
(§6) Tubes are vortexed for 1 to 2 seconds minimizing foaming.
(§7) Tubes are incubated for 15 min at room temperature (15°-30° C.).
(§8) Tubes in the magnetic rack are placed over a magnetic base for two minutes.
(§9) The tubes are decanted and gently blotted briefly in a consistent manner.
(§10) One ml of Washing Solution is added to each tube and the tubes are allowed to remain in the separation rack for two minutes.
(§11) Decant and gently blot all tubes briefly in a consistent manner.
(§12) Repeat steps 8 and 9 an additional time.
(§13) Remove the rack from the separator and add 500 μl of Color Solution to eac tube.
(§14) Vortex for 1 to 2 seconds minimizing foaming.
(§15) Incubate for 20 minutes at room temperature.
(§16) Add 500 μl of Stopping Solution to each tube.
(§17) Read results at 450 nm within 15 minutes after adding the Stopping Solution.
(§18) Calculating the mean absorbance value for each standard.
(§19) Calculating the % B/B0 for each standard by dividing the mean absorbance value for the standard by the mean absorbance value for the Diluent/Zero Standard In other words if the mean absorbance value for the standard is 0.5 times the mean absorbance value for the Diluent/Zero Standard then the % B/B0 is 50% and the concentration of standard used is the 50% B/B0 concentration.)
(§20) Constructing a standard curve by plotting the % B/B0 for each standard on vertical logit (Y) axis versus the corresponding analyte concentration on a horizontal algorithmic (X) axis.
(§21) 4. % B/B0 for controls and sample will then yield levels in ppm of analyte by interpolation using the standard curve.

[2] = because of boiling point 279° C. (Merck Index); cited from earlier work
[3] = Storage stability, 2.5 ml in 3.5 ml vials, antibody preparation reactive with anthracene and phenanthrene; format: physicochemical
Experimental: Additional experiments were done using volumes of 2.5 ml in 3.5 ml vials and an antibody preparation reactive with anthracene and phenanthrene, the antibodies not made with the immunogen described herein and although much less suited for purposes of the present inventions than that made from the described immunogen, were adequate for obtaining the stability curves. (The results were considered to essentially reflect what would have occurred if the storage was done with 2 ml of solution in a 3 ml vial.) Anthracene was tested at concentrations of 1 ppb (upper set of curves in FIG. 6), 10 ppb (middle set of curves in FIG. 6) and 100 ppb (lower set of curves in FIG. 6) in TBS pH 7.0 at the specified temperatures in FIG. 6. Phenanthrene was tested at concentrations of 1 ppb (upper set of curves in FIG. 7), 10 ppb (middle set of curves in FIG. 7) and 100 ppb (lower set of curves in FIG. 7) in TBS at pH 7.0 at the specified temperatures in FIG. 7.

[4] = Loss of immunoreactivity on storage in open test tube (volatilization); format: physicochemical; details: conditions of Example 1; 2,4-D 10 ppm, naphthalene 0.75 ppm; FIG. 5
Experimental: They were stored in 10 ml of distilled water at room temperature (15°-30° C.) in an open test tube (18 mm in diameter, and 150 mm in length).
The "Recovery" was taken to be inversely proportional to the light at 450 nm generated in the assay. […] The loss of reactivity as a function of time was concluded that the loss was due to volatilization and not chemical decomposition of the compounds. Also the loss was so great that it was concluded that even if the solutions had been incubated as 2 ml aliquots in 3 ml closed vials, much more than 30 percent would have volatilized over a 14-day period.
Additionally, preparations of anthracene (20 ppm), naphthalene (0.75 ppm), and 2,4-D (10 ppm), were tested for their immunoreactivity using the conditions of using the conditions described in Example 1.

[5] = Stability (lack of volatilization) of 2 ml solution in stoppered 3 ml vial; format: physicochemical; details: 0.035, 0.10, 0.750 ppm; 2 ml in stoppered 3 ml vial; various temperatures; 60 days; FIGS. 2-4
Experimental: Storage was effected by incubating the 2 ml of solution in a stoppered vial with a 3 ml capacity. The one ml of open "head space" in the vial […] to allow volatilization of the N-(3-methylbenzyl)-diglycolic acid, monoamide.
At each concentration of the N-(3-methylbenzyl)-diglycolic acid, monoamide, the immunoassay was performed at various temperatures denoted in the Figure summarizing the results.

anti-analyte antibody [6] = assay: Cross-reactivity / immunoreactivity in competitive magnetic-particle enzyme immunoassay
Experimental: as §1, §2, §3, §4, §5, §6, §7, §8, §9, §10, §11, §12, §13, §14, §15, §16, §17, §18, §19, §20, §21

| SMILES | IC50 (anti-analyte antibody [1]) [µg/mL] | further results |
| --- | --- | --- |
| C1CCCCC1 [cyclohexane] | > 100 | – |
| CCCCCCCCC [n-nonane] | > 100 | – |
| Cc1ccccc1C [o-xylene] | 4.7 (≈ 44.3 µM) | – |
| c1cc2c3c(cccc3c1)CC2 [acenaphthene] | 6.2 (≈ 40.2 µM) | stability as regards volatilization [2]: stable as regards volatilization |
| C=Cc1ccccc1 [styrene] | 2.6 (≈ 25 µM) | – |
| CCCCCCCC [n-octane] | > 100 | – |
| Clc1c(Cl)c(Cl)c(Cl)c(Cl)c1Cl [hexachlorobenzene] | > 100 | – |
| Cc1ccc(C)c(C)c1 [1,2,4-trimethylbenzene] | 1.15 (≈ 9.57 µM) | – |
| Cc1ccc(C)cc1 [p-xylene] | 3.1 (≈ 29.2 µM) | – |
| CCCCCCCCCC [n-decane] | > 100 | – |
| CCc1ccccc1 [ethylbenzene] | 7.8 (≈ 73.5 µM) | – |
| ClC=C(Cl)Cl [trichloroethylene] | > 100 | – |
| Cc1cc(C)cc(C)c1 [1,3,5-tri-methylbenzene] | 3.5 (≈ 29.1 µM) | – |
| c1ccc2cc3ccccc3cc2c1 [anthracene] | 28 (≈ 157 µM) | stability on storage ([3]; 1, 10, 100 ppb in TBS pH 7.0, 2.5 ml in 3.5 ml vials, FIGS. 6, 7): very stable (meets the 14-day test) |
| CCCc1ccccc1 [n-propylbenzene] | 4.7 (≈ 39.1 µM) | – |
| c1ccc2c(c1)ccc1ccccc12 [phenanthrene] | 1.6 (≈ 8.98 µM) | stability on storage ([3]; pH 7): very stable (meets the 14-day test) |
| c1ccccc1 [benzene] | 51 (≈ 653 µM) | – |
| c1ccc2ccccc2c1 [naphthalene] | 0.59 (≈ 4.6 µM) | stability on storage [4]: not sufficiently stable |
| Cc1cccc(CNC(=O)COCC(=O)O)c1 [N-(3-methylbenzyl)-diglycolic acid, monoamide] | – | stability (lack of volatilization) as a function of storage time [5]: essentially stable; equivalent Total BTEX concentration (anti-analyte antibody [6]; standard at 0.035 ppm): approximately 0.09 ppm; equivalent Total BTEX concentration (anti-analyte antibody [6]; standard at 0.035 ppm, monoamide): 0.09 ppm; equivalent Total BTEX concentration (anti-analyte antibody [6]; standard at 0.10 ppm): approximately 0.35 ppm; equivalent Total BTEX concentration (anti-analyte antibody [6]; standard at 0.10 ppm, monoamide): 0.35 ppm; equivalent Total BTEX concentration (anti-analyte antibody [6]; standard at 0.75 ppm): approximately 3.00 ppm; equivalent Total BTEX concentration (anti-analyte antibody [6]; standard at 0.75 ppm, monoamide): 3.00 ppm |
| O=C(O)COc1ccc(Cl)cc1Cl [2,4-D] | – | stability on storage [4]: more stable than m-xylene but less stable than anthracene |
| CCCCCC [n-hexane] | > 100 | – |
| ClCCl [methylene chloride] | > 100 | – |
| CCCCCCC [n-heptane] | 72 (≈ 719 µM) | – |
| Cc1cccc(C)c1 [m-xylene] | 1.8 (≈ 17 µM) | – |
| Cc1ccccc1 [toluene] | 7.4 (≈ 80.3 µM) | – |
